According to PubChem BioAssay (NCI):
Where “and” joins values, the source holds several entries; their conditions need not be identical. Equal values may be shown once.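 Growth conditions: 96-well plates. Treatment: test compound, 48 hours, 5 concentrations. Analysis: linear interpolation between bracketing concentrations; unreached endpoints set to highest concentration. GI50 is the concentration that inhibits growth by half. TGI is the concentration that stops growth completely.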

Columns and labels:
Assay in all cases: DTP human tumour cell line panel, 48 h
[1] = test system: NCI-H23 lung
[2] = test system: SNB-75 CNS
[3] = test system: 786-0 renal
[4] = test system: LXFL 529 NSCLC
[5] = test system: HCC-2998 colon
[6] = test system: OVCAR-4 ovarian
[7] = test system: M14 melanoma
[8] = test system: HCT-15 colon
[9] = test system: NCI-H522 lung
[10] = test system: XF 498 CNS

Structure (SMILES)	TGI [1]	TGI [2]	TGI [3]	TGI [4]	TGI [5]	TGI [6]	TGI [7]	TGI [8]	GI50 [1]	GI50 [9]	TGI [9]	GI50 [2]	GI50 [3]	GI50 [5]	GI50 [6]	GI50 [7]	GI50 [8]	GI50 [4]	GI50 [10]	TGI [10]
COCCOCC(=O)N(CCn1ccc(NC(c2ccccc2)(c2ccccc2)c2ccccc2)nc1=O)CCn1cnc2nc(N)[nH]c(=O)c21	> 100 µM	> 100 µM	> 100 µM	> 100 µM	> 100 µM	> 100 µM	> 100 µM	> 100 µM	–	–	–	–	–	–	–	–	–	–	–	–
CS(=O)(=O)CCNCc1ccc(-c2ccc3ncnc(Nc4ccc(OCc5ccccc5)c(Cl)c4)c3c2)o1	> 25 µM	> 25 µM	8.58 µM	–	8.37 µM	> 25 µM	10 µM	10 µM	8.98 µM	2200 nM	6.79 µM	4.94 µM	4.06 µM	4.27 µM	9.59 µM	4.82 µM	3.55 µM	–	–	–
COC1=Nc2ccccc2S(=O)(=O)C=C1	21.4 µM	17.5 µM	10.1 µM	–	36.9 µM	27.8 µM	21.4 µM	7.89 µM	–	–	2.81 µM	–	–	–	–	–	–	–	–	–
N#Cc1ccc(C(c2ccc(C#N)cc2)n2cncn2)cc1	> 5000 µM	> 5000 µM	> 5000 µM	–	> 5000 µM	> 5000 µM	> 5000 µM	> 5000 µM	> 5000 µM	–	> 5000 µM	> 5000 µM	> 5000 µM	> 5000 µM	> 5000 µM	> 5000 µM	> 5000 µM	–	–	–
CC(=O)[O][Hg][c]1ccccc1	3.46 µM	2.2 µM	2.82 µM	–	3.11 µM	2.24 µM	1.06 µM	0.877 µM	0.682 µM	138 nM	0.292 µM	0.771 µM	1.43 µM	1.64 µM	0.43 µM	0.283 µM	0.277 µM	–	–	–
Nc1c(C(=O)Nc2ccccc2F)sc2nc3c(cc12)C(=O)CCC3	> 100 µM	> 57.8 µM	> 100 µM	–	> 100 µM	> 100 µM	> 100 µM	> 100 µM	2.04 µM	476 nM	3.9 µM	1.88 µM	13.6 µM	2.2 µM	> 21 µM	0.645 µM	0.642 µM	–	–	–
Cc1c(NC(=O)OC[C@@H]2COCCN2)cn2ncnc(Nc3ccc4c(cnn4Cc4cccc(F)c4)c3)c12	> 10 µM and 26.4 µM	> 10 µM and 30.9 µM	> 10 µM and 24.1 µM	–	> 10 µM and 25 µM	> 10 µM and 27.3 µM	> 10 µM and 16.3 µM	> 10 µM and 21.4 µM	> 10 µM and 11.9 µM	> 10000 nM and 2160 nM	> 10 µM and 17.4 µM	8 µM and 7.09 µM	8.46 µM and 6.1 µM	> 10 µM and 12 µM	> 10 µM and 8.04 µM	9.45 µM and 4.41 µM	5.81 µM and 6.14 µM	–	–	–
O=C(CCCCCCSc1nc(-c2ccc(Cl)cc2)cc(-c2ccc(Cl)cc2)n1)NO	4.33 µM	15.6 µM	6.32 µM	–	17 µM	> 50 µM	3.87 µM	> 50 µM	1.32 µM	970 nM	4.45 µM	1.32 µM	1.59 µM	4.64 µM	1.57 µM	1.26 µM	1.76 µM	–	–	–
Cc1nc2n(c(=O)c1CCN1CCC(c3noc4cc(F)ccc34)CC1)CCCC2	> 50 µM	> 50 µM	> 50 µM	–	> 50 µM	> 50 µM	> 50 µM	> 50 µM	> 50 µM	> 50000 nM	> 50 µM	> 50 µM	> 50 µM	> 50 µM	> 50 µM	> 50 µM	> 50 µM	–	–	–
CN(C[C@@H]1COCCO1)S(=O)(=O)Nc1ccc2ccc3ncc(-c4cnn(C)c4)cc3c(=O)c2c1	> 100 µM	> 27.4 µM	> 100 µM	–	> 100 µM	> 100 µM	> 100 µM	> 100 µM	1.77 µM	3710 nM	> 31 µM	1.6 µM	6.04 µM	59.6 µM	5.65 µM	3.89 µM	3.64 µM	–	–	–
CCC(C(=O)[O-])C(=O)[O-].CCC(C(=O)[O-])C(=O)[O-].N.N.NCCCCCCN.[Pt+4].[Pt+4]	24.5 µM	20.4 µM	14.5 µM	5.12 µM	15.8 µM	13 µM	13.1 µM	13.8 µM	9.84 µM	–	–	9.85 µM	7.74 µM	8.29 µM	5.85 µM	6.68 µM	5 µM	2370 nM	–	–
CNC1C(O)C(OC2C(N)CC(N)C(OC3OC(C(C)O)C(O)C(O)C3N)C2O)OCC1(C)O (centres undefined)	> 100 µM	> 100 µM	> 100 µM	–	> 100 µM	> 100 µM	> 100 µM	> 100 µM	–	–	> 100 µM	–	–	–	–	–	–	–	–	–
Nc1nnc(Cn2c(-c3ccccc3)nc3ccc(Br)cc3c2=O)s1	> 100 µM	> 100 µM	> 100 µM	–	> 100 µM	> 100 µM	> 100 µM	> 100 µM	40.8 µM	38100 nM	> 100 µM	> 100 µM	58.7 µM	42.6 µM	> 100 µM	49 µM	31.6 µM	–	–	–
O=C(OCc1ccc2c(Cl)cc(Cl)c(O)c2n1)c1cc2ccccc2[nH]1	3.2 µM	1.97 µM	0.833 µM	–	3.02 µM	1.45 µM	0.898 µM	0.517 µM	1.49 µM	361 nM	1.15 µM	0.583 µM	0.275 µM	1.51 µM	0.596 µM	0.279 µM	0.217 µM	–	–	–
O=C([O-])c1ccc(C(=O)[O-])cc1.O=C([O-])c1ccc(C(=O)[O-])cc1.[Mo+2].[Mo+2]	> 100 µM	–	> 100 µM	> 100 µM	> 100 µM	> 100 µM	> 100 µM	> 100 µM	> 100 µM	–	–	–	> 100 µM	> 100 µM	> 100 µM	> 100 µM	> 100 µM	> 100000 nM	> 100 µM	> 100 µM
O=C1/C(=C/c2ccccc2)CN(C(=O)OCc2ccccc2)C/C1=C\c1ccccc1	32.6 µM	> 31.6 µM	18.5 µM	–	18.3 µM	27.4 µM	16.7 µM	20.8 µM	–	–	18.5 µM	–	–	–	7.9 µM	5.89 µM	4.01 µM	–	–	> 31.6 µM

Structure (SMILES)	TGI [1]	TGI [2]	TGI [3]	TGI [4]	TGI [5]	TGI [6]	TGI [7]	TGI [8]	GI50 [1]	GI50 [9]	TGI [9]	GI50 [2]	GI50 [3]	GI50 [5]	GI50 [6]	GI50 [7]	GI50 [8]	GI50 [4]	GI50 [10]	TGI [10]
CCN1C(=O)N(c2ccccc2)C2NN=c3s/c(=C4\C(=O)N(C(C)C)c5ccccc54)c(=O)n3C21 (centres undefined)	28.2 µM	4.79 µM	8.64 µM	–	61.8 µM	> 100 µM	> 35.6 µM	> 56.6 µM	1.47 µM	1100 nM	> 77.9 µM	0.253 µM	1.95 µM	3.5 µM	3.71 µM	0.979 µM	0.733 µM	–	–	–
COc1ccccc1S(=O)(=O)Nc1ccc2c(c1)CN(C)C(=O)N2	> 100 µM	–	> 100 µM	–	> 65.1 µM and 81.5 µM	> 100 µM	> 100 µM	> 100 µM	7.03 µM and 12.8 µM	2340 nM and 4750 nM	> 91.7 µM	0.266 µM and 0.481 µM	7.79 µM and 8.82 µM	6.76 µM and 9.52 µM	3.4 µM and 4.28 µM	3.3 µM and 4.08 µM	3.79 µM and 3.32 µM	–	–	–
CC(=O)[O-].O=C([CH-]C(=O)c1ccccc1)c1ccccc1.O=C([CH-]C(=O)c1ccccc1)c1ccccc1.[Y+3]	11.1 µM	7.42 µM	18 µM	–	19.7 µM	77.3 µM	18.9 µM	26.7 µM	2.2 µM	1580 nM	6.06 µM	3.1 µM	3.9 µM	5.72 µM	5.73 µM	5.34 µM	5.45 µM	–	–	–
COc1ccc(-c2cc(-c3cc(OC)c(OC)c(OC)c3)c(C#N)c(N3CCOCC3)n2)cc1O	> 100 µM	> 25.6 µM	> 100 µM	–	> 100 µM	> 100 µM	> 100 µM	> 60.3 µM	26.7 µM	5140 nM	> 53.6 µM	2.2 µM	51.2 µM	29.2 µM	47.9 µM	10.1 µM	1.89 µM	–	–	–
CCCCn1sc(=O)n(Cc2ccc(CNC(=O)OCc3ccc4c(Br)cc(Br)c(O)c4n3)cc2)c1=O	> 100 µM	> 100 µM	> 100 µM	–	> 69.8 µM	> 100 µM	> 100 µM	> 100 µM	0.7 µM	264 nM	–	0.499 µM	1.58 µM	4.25 µM	0.701 µM	0.37 µM	0.468 µM	–	–	–
O=C1C2c3[nH]c4ccccc4c3[C@@H]3CCCCC3C2C(=O)N1c1ccccc1 (some centres undefined)	39.2 µM	71.5 µM	37.5 µM	39.6 µM	36.5 µM	75 µM	30 µM	> 100 µM	–	–	–	–	–	–	–	–	–	–	–	–
O=[N+]([O-])c1ccc(Sc2c3ccccc3nc3ccccc23)nc1	19.8 µM	29.2 µM	4.25 µM	–	32.1 µM	12.9 µM	10.4 µM	12.1 µM	–	–	8.09 µM	–	–	–	–	–	–	–	–	–
CCCCCCCCCCCCOC1C(CNC(=O)C2OC3OC(C)(C)OC3C2NC(=O)CN2CCCCCC2)OC2OC(C)(C)OC21 (centres undefined)	24.8 µM	21.4 µM	23.4 µM	–	19.3 µM	20 µM	3.47 µM	14.8 µM	10.9 µM	5070 nM	17.8 µM	8.49 µM	10.4 µM	6 µM	6.47 µM	1.79 µM	4.03 µM	–	–	–
COc1ccc(Cn2cc3c(c2-c2cc(OC)c(OC)c(OC)c2)CCc2cnoc2-3)cc1[N+](=O)[O-]	> 30.3 µM	–	> 43.5 µM	–	> 31.6 µM	> 100 µM	> 20.4 µM	> 100 µM	1.46 µM	294 nM	1.64 µM	0.849 µM	6.74 µM	1.93 µM	3.75 µM	0.662 µM	0.573 µM	–	–	–
COc1cnc2c(c1)C(=O)c1c-2n(CCCN2CCCC2)c(=O)c2cc(F)ccc12	2.4 µM	5.44 µM	1.11 µM	–	20.7 µM	11.3 µM	1.95 µM	1.98 µM	0.331 µM	81.9 nM	1.23 µM	0.327 µM	0.257 µM	2.65 µM	0.365 µM	0.392 µM	0.283 µM	–	–	–
CN(CCCl)c1ccc(/C=C/C2=[N+](C)c3ccccc3C2(C)C)cc1	11 µM	6.91 µM	15.9 µM	–	12.8 µM	10 µM	14.8 µM	21.7 µM	0.434 µM	296 nM	3.89 µM	1.2 µM	3.9 µM	1.6 µM	1.62 µM	1.03 µM	6.3 µM	–	–	–
CN(C)c1ccc(/C=N\N2C(=O)c3ccccc3C2=O)cc1	> 100 µM	> 100 µM	> 100 µM	> 100 µM	> 100 µM	> 100 µM	> 100 µM	> 100 µM	–	–	–	–	–	–	–	–	–	–	–	> 100 µM
CCOC(=O)NC(=O)c1cn(CCN2CCN(C(=O)CCCCCCCCCCNc3ncnc4nc[nH]c34)CC2)c(=O)[nH]c1=O	> 100 µM	> 100 µM	> 100 µM	> 100 µM	> 100 µM	> 100 µM	> 100 µM	> 100 µM	–	–	–	–	–	–	–	–	–	–	–	–
CCCCCC/C=C\CCCCCCCCCC1=CC(=O)C=C(OC)C1=O	12 µM	8.07 µM	17 µM	–	27 µM	9.22 µM	16.2 µM	11.1 µM	–	–	4.58 µM	–	–	–	–	–	–	–	–	–
COC12CC(=O)C(C(C)=O)=C(O)C1(C)c1c(OC(C)=O)c(C)c(O)c(C(C)=O)c1O2 (centres undefined)	31.3 µM	80.6 µM	> 100 µM	> 100 µM	84 µM	> 100 µM	> 100 µM	> 100 µM	–	–	–	–	–	–	–	–	–	–	–	70.7 µM
N[C@@H]1CCCN(c2c(/C=C3\SC(=O)NC3=O)cccc2-c2ccccc2)C1	33.1 µM	17.5 µM	29.8 µM	–	28.6 µM	28.4 µM	25.8 µM	29.5 µM	15.3 µM	11500 nM	25.3 µM	3.31 µM	15.4 µM	14.1 µM	13.2 µM	11.1 µM	13.7 µM	–	–	–
